Some test systems named below: DLD-1 colon; HOP-18 NSCLC; RXF-631 renal; DMS 273 small cell lung; XF 498 CNS; P388 leukemia; P388/ADR leukemia; SN12K1 renal.
Holding throughout (test): NCI tumour cell line growth inhibition, 48 h

Molecules are shown by their SMILES.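 Cultured in 96-well plates, cells were exposed to test compound for 48 hours across five concentrations. TGI is the concentration that stops growth completely.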

For the compound `C=C(C)C1Cc2c(c3ccccc3n(C)c2=O)O1` (stereo not drawn), the TGI in the test on DLD-1 colon, with HOP-18 NSCLC and with RXF-631 renal was more than 100 µM each time.

As for `Nc1[nH]c(=O)nc2c1cnn2C1CCCCO1` (stereo not drawn), the TGI in the test with DLD-1 colon, in the test with DMS 273 small cell lung, in the test on HOP-18 NSCLC, with RXF-631 renal and with XF 498 CNS was more than 100 µM throughout.

On to `Cc1cc(C)nc(NS(=O)(=O)c2ccc(NC(=O)c3cccc4c(Nc5ccc(S(=O)(=O)Nc6cc(C)on6)cc5)c5ccccc5nc34)cc2)n1`, for which the TGI with DLD-1 colon was more than 100 µM; in the test on XF 498 CNS, 47.6 µM.

For the compound `COc1cc(C(C)O)c[n+](Cc2ccccc2)c1` (stereo not drawn), the TGI in the test on DLD-1 colon was more than 100 µM; with DMS 273 small cell lung it was more than 100 µM; with HOP-18 NSCLC, more than 100 µM; with RXF-631 renal it was more than 100 µM; in the test with XF 498 CNS, more than 31.6 µM.

Take `CC12C=CC(=O)C=C1CCC1C3CCC(O)(C(=O)CO)C3(C)CC(O)C12F` (stereo not drawn): the TGI in the test with DLD-1 colon, with DMS 273 small cell lung and in the test on XF 498 CNS was more than 100 µM throughout.

`CC(N)Cc1ccc(Cl)c(Cl)c1` (stereo not drawn): the TGI is more than 100 µM in the test on DLD-1 colon, more than 71.9 µM in the test with DMS 273 small cell lung, more than 77.1 µM in the test on HOP-18 NSCLC and 23.7 µM in the test on XF 498 CNS.

Turning to `Cn1c(-c2ccccc2)cc(-c2cccs2)c1-c1cccs1`, the TGI in the test on DLD-1 colon is more than 100 µM; in the test with DMS 273 small cell lung it was more than 100 µM; in the test with HOP-18 NSCLC it was more than 100 µM; in the test with P388 leukemia, more than 100 µM; in the test with P388/ADR leukemia it was more than 100 µM; in the test with SN12K1 renal, more than 41.9 µM. The same compound came in with a TGI in the test with XF 498 CNS of more than 100 µM.

`CN1C(c2ccccc2)CC(=O)C(N)C1c1ccccc1` (stereo not drawn): the TGI with DLD-1 colon was more than 100 µM; in the test on DMS 273 small cell lung it was more than 61.7 µM; in the test on HOP-18 NSCLC, more than 100 µM; in the test on XF 498 CNS, 28.1 µM.

The values are drawn from PubChem BioAssay (NCI).
